Tested on: NOMO1
Experiment: cell viability relative to DMSO control; higher = less cytotoxic
Conditions: 48 h
Procedure, shortened: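 Three leukemia lines were tested: NOMO1 and SEM at 500 cells/well and P12-Ichikawa at 1000 cells/well. Each was adapted for at least four passages in each medium and seeded in 5 μl in 1536-well plates, and library compounds in DMSO were pin-dosed from 47 μM to 0.79 nM in 11 threefold steps. After 48 h at 37°C, CellTiter-Glo One luminescence was read. Viability is a percentage relative to DMSO wells on each plate, with cell-free wells as background.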

[1] = HPLM + 10% dialyzed FBS, 0.000781 µM
[2] = HPLM + 10% dialyzed FBS, 0.00234 µM
[3] = HPLM + 10% dialyzed FBS, 0.00702 µM
[4] = HPLM + 10% dialyzed FBS, 0.0211 µM
[5] = HPLM + 10% dialyzed FBS, 0.0632 µM
[6] = HPLM + 10% dialyzed FBS, 0.19 µM
[7] = HPLM + 10% dialyzed FBS, 0.569 µM
[8] = HPLM + 10% dialyzed FBS, 1.71 µM
[9] = HPLM + 10% dialyzed FBS, 5.12 µM
[10] = HPLM + 10% dialyzed FBS, 15.4 µM
[11] = HPLM + 10% dialyzed FBS, 46.1 µM
[12] = RPMI 5 mM glucose + 10% FBS, 0.000781 µM
[13] = RPMI 5 mM glucose + 10% FBS, 0.00234 µM
[14] = RPMI 5 mM glucose + 10% FBS, 0.00702 µM
[15] = RPMI 5 mM glucose + 10% FBS, 0.0211 µM
[16] = RPMI 5 mM glucose + 10% FBS, 0.0632 µM
[17] = RPMI 5 mM glucose + 10% FBS, 0.19 µM
[18] = RPMI 5 mM glucose + 10% FBS, 0.569 µM
[19] = RPMI 5 mM glucose + 10% FBS, 1.71 µM
[20] = RPMI 5 mM glucose + 10% FBS, 5.12 µM
[21] = RPMI 5 mM glucose + 10% FBS, 15.4 µM
[22] = RPMI 5 mM glucose + 10% FBS, 46.1 µM
[23] = RPMI 5 mM glucose + 10% dialyzed FBS, 0.000781 µM
[24] = RPMI 5 mM glucose + 10% dialyzed FBS, 0.00234 µM
[25] = RPMI 5 mM glucose + 10% dialyzed FBS, 0.00702 µM
[26] = RPMI 5 mM glucose + 10% dialyzed FBS, 0.0211 µM
[27] = RPMI 5 mM glucose + 10% dialyzed FBS, 0.0632 µM
[28] = RPMI 5 mM glucose + 10% dialyzed FBS, 0.19 µM
[29] = RPMI 5 mM glucose + 10% dialyzed FBS, 0.569 µM
[30] = RPMI 5 mM glucose + 10% dialyzed FBS, 1.71 µM
[31] = RPMI 5 mM glucose + 10% dialyzed FBS, 5.12 µM
[32] = RPMI 5 mM glucose + 10% dialyzed FBS, 15.4 µM
[33] = RPMI 5 mM glucose + 10% dialyzed FBS, 46.1 µM

Row | SMILES | cell viability [1] [%] | cell viability [2] [%] | cell viability [3] [%] | cell viability [4] [%] | cell viability [5] [%] | cell viability [6] [%] | cell viability [7] [%] | cell viability [8] [%] | cell viability [9] [%] | cell viability [10] [%] | cell viability [11] [%] | cell viability [12] [%] | cell viability [13] [%] | cell viability [14] [%] | cell viability [15] [%] | cell viability [16] [%] | cell viability [17] [%] | cell viability [18] [%] | cell viability [19] [%] | cell viability [20] [%] | cell viability [21] [%] | cell viability [22] [%] | cell viability [23] [%] | cell viability [24] [%] | cell viability [25] [%] | cell viability [26] [%] | cell viability [27] [%] | cell viability [28] [%] | cell viability [29] [%] | cell viability [30] [%] | cell viability [31] [%] | cell viability [32] [%] | cell viability [33] [%]
1 | CCCCCCCCCCCCCC(=O)N[C@H](CO)[C@H](O)c1ccc([N+](=O)[O-])cc1 | 92.5 | 98.8 | 99.1 | 105 | 105 | 90.8 | 108 | 49.9 | 16.8 | 3.54 | 2.02 | 91.2 | 82.8 | 99.6 | 90.2 | 98.2 | 91.3 | 93 | 51 | 21.5 | 3.33 | 2.43 | 83.2 | 95 | 95.7 | 90.6 | 92.2 | 93 | 94.1 | 59.4 | 23.2 | 4.12 | 2.14
2 | CCCCCNC(=O)N1CCC(CN(Cc2ccc(Cl)cc2)Cc2ccc([N+](=O)[O-])s2)C1 (centres undefined) |  |  |  |  |  |  |  |  |  |  |  | 123 | 111 | 104 | 102 | 107 | 120 | 108 | 112 | 110 | 94.5 | 94.8 |  |  |  |  |  |  |  |  |  |  | 
3 | COc1ccc2c(c1)[C@]13CCCCC1C(C2)N(C)CC3 (some centres undefined) |  |  |  |  |  |  |  |  |  |  |  | 104 | 117 | 107 | 121 | 118 | 108 | 109 | 111 | 121 | 90.3 | 101 | 111 | 114 | 116 | 119 | 135 | 130 | 114 | 132 | 115 | 118 | 84.2
4 | CCCCN(CCCC)CC(O)c1cc(Cl)cc2c1-c1ccc(Cl)cc1/C2=C/c1ccc(Cl)cc1 (centres undefined) | 94.7 | 87.5 | 104 | 107 | 93.6 | 107 | 90.5 | 97.9 | 82.6 | 95 | 92.6 | 83.3 | 102 | 94.6 | 87.1 | 105 | 86.9 | 87.5 | 90.7 | 104 | 94.9 | 97.8 | 104 | 91.8 | 93.7 | 104 | 99.4 | 104 | 102 | 89.8 | 95.4 | 72.9 | 103
5 | CCCNC(=O)Nc1ccc(Oc2ncnc3cc(OC)c(OC)cc23)cc1Cl | 96.9 | 98 | 84.1 | 95.7 | 97.7 | 87.9 | 103 | 81.8 | 71 | 71.6 | 73.5 | 89.6 | 90.7 | 84.7 | 95.7 | 86 | 90.6 | 81.9 | 90.3 | 87.4 | 82 | 77.6 | 97.8 | 92.4 | 101 | 96.7 | 90.9 | 88.4 | 86.7 | 84.4 | 84.7 | 81.9 | 70.5
6 | COc1ccc(C(=O)CC2(O)C(=O)Nc3c(Cl)ccc(Cl)c32)cc1 (centres undefined) | 111 | 115 | 128 | 119 | 106 | 119 | 120 | 121 | 77.3 | 34.5 | 26.7 | 95.6 | 108 | 119 | 111 | 109 | 113 | 109 | 123 | 101 | 25.6 | 18.6 | 89.5 | 111 | 110 | 108 | 108 | 120 | 117 | 108 | 99.2 | 26.6 | 22.4
7 | CN1CC(=O)N2[C@H](c3ccc4c(c3)OCO4)c3[nH]c4ccccc4c3C[C@@H]2C1=O | 111 | 99.6 | 109 | 107 | 103 | 94.8 | 98.7 | 83.3 | 91.5 | 90.7 | 74.8 | 97.2 | 96.1 | 89.1 | 88.4 | 101 | 101 | 97 | 83.9 | 92.8 | 97.8 | 77 | 107 | 93.5 | 97.6 | 98.3 | 88.4 | 103 | 98.9 | 89 | 81.3 | 109 | 79.1
8 | Cc1cccc(Nc2ccncc2[S+](=O)([O-])NC(=O)NC(C)C)c1 | 105 | 103 | 100 | 85.6 | 112 | 105 | 103 | 87.3 | 80.9 | 89.3 | 56 | 95.6 | 89.6 | 96.4 | 88.9 | 83 | 84.8 | 89.4 | 89.1 | 79.2 | 82.3 | 72.4 | 89.1 | 91.4 | 81.1 | 94.1 | 93.6 | 92.6 | 85.5 | 89.3 | 83.5 | 81 | 65.8
9 | COc1cccc2c1C(=O)c1c(O)c3c(c(O)c1C2=O)C[C@@](O)(C(=O)CO)C[C@@H]3O[C@H]1C[C@H](N)[C@H](O)[C@H](C)O1 | 112 | 127 | 108 | 120 | 96.2 | 108 | 116 | 90.2 | 8.77 | 37.4 | 6.99 | 116 | 111 | 107 | 115 | 102 | 102 | 108 | 102 | 7.5 | 25.6 | 6.28 | 112 | 116 | 105 | 104 | 107 | 110 | 100 | 104 | 8.85 | 34.3 | 5.09
10 | C[C@@H]1CCO[C@H]2CN\3/C=C(/C(=O)NCC4=C(F)C=C(F)C=C4)C(=O)\C(=C3C(=O)N12)O | 107 | 103 | 117 | 116 | 109 | 109 | 101 | 90.6 | 105 | 102 | 108 | 87.6 | 91.1 | 110 | 88.7 | 92.6 | 88.5 | 84.5 | 102 | 86.3 | 95.4 | 93.9 | 90.3 | 82 | 106 | 96.9 | 99.6 | 85.8 | 103 | 98.4 | 95.5 | 87.1 | 96.2
11 | C=C[C@H]1CN2CCC1C[C@@H]2C(O)c1ccnc2ccc(OC)cc12 (some centres undefined) | 111 | 133 | 115 | 107 | 135 | 116 | 128 | 108 | 105 | 125 | 102 | 111 | 116 | 114 | 108 | 127 | 120 | 119 | 119 | 116 | 107 | 104 | 110 | 119 | 116 | 121 | 124 | 110 | 127 | 117 | 106 | 107 | 100
12 | CCOC(=O)C(C)OC1=CC=CC2=C1\C=C/N(CC(=O)NC3=CC=C4OCCOC4=C3)C2=O (centres undefined) | 82.7 | 96.6 | 94.4 | 97.2 | 90.8 | 98.5 | 99.8 | 94.7 | 80.5 | 81.8 | 97.2 | 81.7 | 89.4 | 101 | 96.8 | 91 | 88.8 | 96.7 | 87.8 | 89.4 | 89.5 | 87.5 | 92.3 | 89.8 | 98.2 | 92.2 | 94.6 | 92.3 | 94.9 | 88.8 | 74.6 | 91.9 | 109
13 | C=CC(=O)Nc1cc2c(Nc3ccc(F)c(Cl)c3)ncnc2cc1OCCCN1CCOCC1 | 111 | 127 | 121 | 132 | 114 | 104 | 108 | 105 | 76.5 | 59.1 | 72.7 | 123 | 119 | 126 | 124 | 128 | 108 | 104 | 110 | 103 | 88.2 | 94.3 | 116 | 111 | 117 | 108 | 120 | 109 | 105 | 101 | 80.5 | 73.4 | 90.4
14 | NC(=O)c1ccc(N(C(N)=O)c2c(F)cccc2F)nc1-c1ccc(F)cc1F | 90 | 103 | 113 | 104 | 115 | 115 | 95.3 | 114 | 99.6 | 94.8 | 111 | 80.4 | 86.9 | 95.4 | 100 | 94.3 | 93.8 | 95.2 | 105 | 101 | 84.9 | 88 | 78.2 | 92.4 | 91.1 | 99.1 | 85.4 | 91.6 | 95 | 87.4 | 93.6 | 80.4 | 94.3
15 | NC[C@H]1O[C@H](O[C@@H]2[C@H](O)[C@@H](O[C@H]3O[C@H](CO)[C@@H](O)[C@H](N)[C@H]3O)[C@H](N)C[C@@H]2N)[C@H](O)[C@@H](O)[C@@H]1O | 132 | 122 | 121 | 111 | 135 | 127 | 113 | 129 | 112 | 121 | 109 |  |  |  |  |  |  |  |  |  |  |  | 120 | 128 | 114 | 124 | 113 | 124 | 113 | 123 | 120 | 106 | 112
16 | Cc1cc2c(C(N)=O)cccc2n1-c1nc2c(c(NCc3ccccc3)n1)COCC2 | 117 | 124 | 101 | 108 | 114 | 103 | 85.5 | 25 | 4.02 | 3.66 | 3.75 | 89.3 | 106 | 92.9 | 87.8 | 99.8 | 98 | 81.6 | 44.1 | 3.08 | 3.4 | 3.91 | 92.9 | 90.3 | 92.4 | 92.8 | 91.2 | 100 | 73.3 | 20.6 | 3.21 | 2.75 | 2.84
